Measurements: patent US20160002391A1, “POLYMERS, SUBSTRATES, METHODS FOR MAKING SUCH, AND DEVICES COMPRISING THE SAME” (AVERTICA, INC., priority 2013, published 2016)
Structures can show the parent of a compound that is named as a salt.

Test system: mushroom tyrosinase (phenyl oxidase)
Experiment: Substituted substrates for phenol oxidases: polymer formation with mushroom tyrosinase
Assay type: biochemical
Details: 5 mM potassium phosphate buffer, 200 Units tyrosinase, up to 3 hours
Procedure: 6-hydroxyindole, 6-hydroxyindole-3-carboxaldehyde, 1,2-dihydroxybenzene (catechol), 2,3-dihydroxybenzaldehyde, and 3,4-dihydroxybenezaldehyde were used as substrates for phenol oxidases.
6-hydroxyindole, 6-hydroxyindole-3-carboxaldehyde, 1,2-dihydroxybenzene (catechol), 2,3-dihydroxybenzaldehyde, and 3,4-dihydroxybenezaldehyde were dissolved in water at a concentration of 0.03 g/ml. Ten microliters of each was diluted into 90 microliter of 5 mM potassium phosphate buffer and 2 μl of mushroom tyrosinase (phenyl oxidase, 200 Units) was added. The reactions were allowed to proceed for up to 3 hours. […] Buffer alone with no substrates were used as controls and were negative for polymer formation.

| Structure (SMILES) | Polymer formation with mushroom tyrosinase |
| --- | --- |
| O=Cc1ccc(O)c(O)c1 [3,4-dihydroxybenezaldehyde] | Polymers were formed |
| O=Cc1c[nH]c2cc(O)ccc12 [6-hydroxyindole-3-carboxaldehyde] | Polymers were formed |

Next, values leading:

| Polymer formation with mushroom tyrosinase | Structure (SMILES) |
| --- | --- |
| Polymers were formed | O=Cc1cccc(O)c1O [2,3-dihydroxybenzaldehyde] |
| Polymers were formed | Oc1ccccc1O [1,2-dihydroxybenzene (catechol), 1,2-dihydroxybenzene] |
| Polymers were formed | Oc1ccc2cc[nH]c2c1 [6 Hydroxyindole] |

Test system: mushroom tyrosinase (polyphenol oxidase)
Experiment: Polymer production in enzymatic tyrosinase (polyphenol oxidase) reaction
Assay type: biochemical
Design: key: +++: Reacted within about 1 hour; ++: reacted within about 3 hours; +: reacted within about 24 hours; +/−: inconclusive results; −: no reaction
Details: approx. 50 mM potassium phosphate buffer pH 6.5, approx. 5 mM substrate, observed over 24 hour period
Procedure: All reactions were carried out in approximately 50 mM potassium phosphate buffer, pH 6.5 with approximately 5 mM substrate and mushroom tyrosinase (polyphenol oxidase) Sigma T3824 in an amount of 100 to 10,000 units. Reaction volumes varied from 200 μl to 2 ml. In cases where substrates were not completely solubilized, then a saturated solution was used as the limit of solubility. In some cases, a solution of DMSO was used to increase solubility of the substrates. […] The reactions were observed over a 24 hour period for the production of polymers, and the presence and color of polymer and solution was recorded.
The production of polymers in each reaction was visible as a precipitate in the well of a 96 well plate or in the reaction mixture on a glass slide.

| Structure (SMILES) | Result (polymer production in tyrosinase reaction) |
| --- | --- |
| c1ccc2[nH]ccc2c1 [Indole] | − |
| Cl.NCCc1ccc(O)cc1 [Tyramine HCl] | +++ (Reacted within about 1 hour) |
| Cl.NCCc1ccccc1 [Beta phenylethylamine HCL] | +/− |
| NCCc1ccc(O)cc1 [Tyramine] | +++ (Reacted within about 1 hour) |

Second part, the compound after the results:

| Result (polymer production in tyrosinase reaction) | Structure (SMILES) |
| --- | --- |
| ++ (reacted within about 3 hours) | CN[C@@H](Cc1ccc(O)cc1)C(=O)O [N-methyl tyrosine] |
| + (reacted within about 24 hours) | Oc1ccc2cc(O)ccc2c1 [2,6 dihydroxnaphthalene] |
| ++ (reacted within about 3 hours) | Oc1ccc2cc[nH]c2c1 [6 Hydroxyindole] |
| +++ (Reacted within about 1 hour) | Oc1ccc2[nH]ccc2c1 [5-hydroxyindole] |
| ++ (reacted within about 3 hours) | N[C@@H](Cc1ccc(O)cc1)C(=O)O [Tyrosine] |

Same assay, conditions: as above; substrate (or marked component) dissolved in 20% DMSO

| Result (polymer production in tyrosinase reaction) | Structure (SMILES) |
| --- | --- |
| + (reacted within about 24 hours) | Oc1ccc(-c2cc(-c3ccc(O)cc3)cc(-c3ccc(O)cc3)c2)cc1 [1,3,5 Tris(4hydroxyphenyl)benzene] |
| − | Oc1ccc2c(c1)[nH]c1ccccc12 [2 Hydroxy carbazole] |

| Structure (SMILES) | Result (polymer production in tyrosinase reaction) |
| --- | --- |
| CC1=NCCc2c1[nH]c1cc(O)ccc21 [Harmalol HCl dehydrate] | − |
